Test results taken from patent US9718823B2, “2, 6-Di-nitrogen-containing substituted purine derivative, and preparation method, pharmaceutical composition and use thereof” (Zhejiang Medicine Co., Ltd. Xinchang Pharmaceutical Factory, priority 2013, dated 2017).
Like-named read-outs stand apart in the source and are kept apart here.

How the values were obtained:
[1] = system: PC-3 human prostate cancer cell strain; assay: Antitumor cell proliferation in vitro, CCK-8 detection kit, PC-3; format: cell-based; settings: PC-3 cells, 1st and 2nd test where printed
Method: (§1) The half inhibitory concentration IC50 of proliferation of three kinds of tumor cell strain (U87MG, PC-3, BT474) for 12 candidate compounds of the present invention is detected by CCK-8 detection kits.
PC-3 human prostate cancer cell strain (cell bank of Chinese Academy of Sciences)
(§2) The studied compounds are dissolved by DMSO to make the final concentration 10 mM.
(§3) • a) Collecting the cells in logarithmic phase, counting, and resuspending the cells with complete medium. • b) Adjusting the concentration of cells to a suitable concentration, inoculating in 96 well plates, each well is inoculated to 100 μl cell suspension.
(§4) c) incubating cells for 24 hours in a 5% CO2 incubator at temperature of 37° C., under the condition of 100% relative humidity.
(§5) a) The cells in logarithmic phase is collected, counted, resuspended with complete medium. The concentration of cells is adjusted to a suitable concentration (determined in accordance with the optimizable test results of cell density), and the cells is inoculated in 96 well plates, wherein each well is inoculated 100 μl cell suspension, Cells are incubated for 24 hours in 5% CO2 incubator at temperature of 37° C. under the condition of 100% relative humidity.
(§6) b) The test compounds are diluted to 500 μM with culture medium, then diluted in series eight times. […] as 25 μl/well. The final concentrations of the compounds are diluted from 100 μM to 0 μM, with 4 times dilution, and there are a total of 10 concentration points.
(§7) c) Cells are incubated for 72 hours in 5% CO2 incubator at temperature of 37° C. under the condition of 100% relative humidity.
(§8) d) The culture medium is aspirated and discarded, and complete medium containing 10% CCK-8 is incubated in a incubator at 37° C. for 2˜4 hours.
(§9) e) After shocking gently, the absorbance of the culture medium is measured at 450 nm wavelength on SpectraMax M5 Microplate Reader, with the absorbance at 650 nm as reference, to calculate the inhibition rate.

PDGFR β enzyme = molecular target: T1, PDGFR β enzyme (Homo sapiens, UniProt P09619); assay: Inhibitory activity to PDGFR β enzyme, HTRF kinEASE TK kit; format: biochemical; settings: read-out: Inhibition rate % (PDGFR β)
T1 construct: purchased Invitrogen P3082
Summary of the method: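 Recombinant human PDGFRβ phosphorylating TK-substrate in kinase buffer containing MgCl2, MnCl2, DTT and SEB, with ATP. Phosphorylation detected by HTRF using TK-Ab-Cryptate and Sa-XL665.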

[2] = system: U87MG human glioblastoma Multiforme cell strain; assay: Antitumor cell proliferation in vitro, CCK-8 detection kit, U87MG; format: cell-based; settings: U-87 MG, 72 h, U-87MG cells, 1st and 2nd test where printed
Method: as §1
U87MG human glioblastoma Multiforme cell strain (cell bank of Chinese Academy of Sciences)
as §2, §3, §4, §5, §6, §7, §8, §9

[3] = system: BT474 human breast cancer cell strain; assay: Antitumor cell proliferation in vitro, CCK-8 detection kit, BT474; format: cell-based; settings: BT-474 cells, 1st and 2nd test where printed
Method: as §1
BT474 human breast cancer cell strain (cell bank of Chinese Academy of Sciences) Reagents and materials:
as §2, §3, §4, §5, §6, §7, §8, §9

PI3 K γ = molecular target: T2, PI3 K γ (Homo sapiens, UniProt P48736); assay: Inhibitory activity to PI3K γ, PI 3-Kinase (human) HTRF Assay kit; format: biochemical; settings: read-out: Inhibition rate % to PI3 K γ
T2 construct: purchased Biology, Medicilon
Summary of the method: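 HTRF kinase assay with PI3Kγ at 80 ng/well, 10 μM PIP2 and 100 μM ATP (both final) in DTT-containing reaction buffer, 1% DMSO. Preliminary screen at 10 μM and 1 μM compound, followed by IC50 determination for selected compounds.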

PI3Kδ = molecular target: T3, PI3Kδ (Homo sapiens, UniProt O00329); assay: Inhibitory activity to PI3K δ, PI 3-Kinase (human) HTRF Assay kit; format: biochemical; settings: for inhibition at 1 µM: 1 μM (Table 7)
T3 construct: purchased Millipore 14-604
Summary of the method: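 Inhibition of human PI3Kδ was assessed with the Millipore PI 3-Kinase (human) HTRF Assay kit. PI3Kδ was screened at 2 ng/well, diluted in 2×PIP2 operating fluid. Reactions were 20 μL and contained 100 μM ATP. Stop solution was Stop A and Stop B mixed 3:1. Detection solution was DM C, DM A and DM B mixed 18:1:1. Compounds were prepared from DMSO stocks, and percent inhibition was reported.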

[4] = system: PC-3 cell Akt (Ser473) phosphorylation; assay: Inhibition of phosphorylation level of PC-3 cell Akt (Ser473), Cisbio HTRF phospho Akt (Ser473) cell-based assay; parameters: species or system human; settings: hEGF 100 ng/ml stimulation, 1st and 2nd test where printed
Method: The inhibitory activity of the compounds of present invention to the phosphorylation level of PC-3 cell Akt (Ser473) is studied by using Cisbio HTRF phospho Akt (Ser473) cell-based assay test kit.
Cell strain: PC-3 prostate cancer cells line (cell bank of Chinese Academy of Sciences) is cultured by using culture medium (F12K+10% FBS).
hEGF is prepared as stock solution of 100 ug/ml with 10 mM acetic acid, and the stock solution is diluted to 200 ng/ml with serum-free medium, added 50 ul to each well to be stimulated.
b) Preparation of Complete Lysate • 4×Lysis Buffer is diluted 4 times with ddH2O to prepare 1×Lysis Buffer. • 100×Blocking Reagent is diluted 100 times with 1×Lysis Buffer.
c) Preparation of Detection Liquid • 20×Anti-Phospho-Akt is diluted 20 times with Detection Buffer. • 20×Anti-Akt is diluted 20 times with Detection Buffer.
The compounds are diluted with DMSO, and the working concentration of compounds is 100 times of detection concentration.
Cells in logarithmic growth phase are collected, counted, and resuspended with complete culture medium;
The cell concentration is adjusted to appropriate concentration, and cell suspension is inoculated into 96 well plates at 50 μl per well;
Cells are incubated for more than 4 h in the 5% CO2 incubator at temperature of 37° C., relative humidity of 100%;
Cell plate is removed from the incubator. The cell suspension is aspirated gently, and 50 ul serum-free F12K medium is quickly added, then the cell plate is placed into the incubator to culture overnight.
The compounds are diluted in a linear gradient with DMSO.
0.5 ul compounds is added into the test well, mixed on oscillators, and incubated at room temperature for 2 hours.
Proportioned hEGF solution is added to test well at 50 μl per well, and the final concentration is 100 ng/ml. serum-free medium is added into The negative control well at 50 μl per well.
The solution is mixed on oscillator and incubated at room temperature for 2 hours.
The liquid in 96 well plates is aspirated by multichannel pipette or the supernatant is discarded gently. The proportioned complete lysate is added quickly at 50 μl per well.
The solution is mixed on oscillator and lysed at room temperature for 30 min.
16 μl cell lysate is transferred from the 96 well plates to white low volume 384 well plates, and the proportioned two pairs of detection antibody are added. The solution is mixed on oscillator, and incubated at room temperature for 4 hours to detect the readings.

PI3K α = molecular target: T4, PI3K α (Homo sapiens, UniProt P42336); assay: Inhibitory activity to PI3K α, PI 3-Kinase (human) HTRF Assay kit; format: biochemical; settings: read-out: % Inhibition Rate to PI3K α
T4 construct: purchased Millipore 14-602
Source text: Study on the inhibitory activity of the compounds of present invention to PI 3κα, PI3κδ and PI3κγ. Two or three concentrations of the compounds are selected to preliminary screening to calculate respectively the activity inhibition rate of the compounds of corresponding concentrations to enzyme, then the compounds with better activity are selected by preliminary screening for IC50 test.
PI 3-Kinase (human) HTRF™ Assay kit (Cat.33-017, Millipore)
PI 3k α (Cat.14-602, Millipore)
4× Reaction Buffer (Cat.33-002, Millipore) is diluted with ddH2O to 1.33×, and 1M DTT is added to make the final concentration as 6.67 mM. For example, 10 μL DTT is added into 500 μL 4× Reaction Buffer, and water is added to 1.5 mL.
The Test compounds are dissolved with DMSO to 1 mM as storage liquid. 2 μL of each of storage liquid is added into 48 μL ddH2O, to obtain the 40 μM compounds solution containing 4% DMSO. After mixing, 3 μL of each of the solution is added into 27 μL 4% DMSO (in ddH2O) to obtain the 4 μM compounds solution. 5 μL of each dilute solution is added into 384-well plates, then the final concentration of the compounds in the 20 μL final kinase reaction system is 10 μM and 1 μM respectively contained 1% DMSO. The dilution methods of compounds are similar to the preliminary screening in IC50 test.
2×PIP2 working fluid is prepared with 1.33× reaction buffer to the final concentration of 20 μM.
The screening concentration of PI 3k α kinase: 8 ng/well,
Kinase is diluted with 2×PIP2 operating fluid, the concentration of kinase operating fluid is 2 times of screening concentration.
10 mM ATP is diluted with 1.33× reaction buffer to 400 μM. The concentration of ATP is 100 μM in 20 μL kinase reaction system.
Stop A and Stop B are mixed according to the proportion of 3:1, and are placed for 2 hours at room temperature to obtain the stop solution available.
DM C, DM A and DM B are mixed according to the proportion of 18:1:1, and are placed for 2 hours at room temperature to obtain the detection solution available.

[5] = read-out: Inhibition rate % to PI3Kδ
[6] = 10 μM (Table 7), read-out: Inhibition rate % to PI3Kδ

T1 sequence (P09619 33-1106): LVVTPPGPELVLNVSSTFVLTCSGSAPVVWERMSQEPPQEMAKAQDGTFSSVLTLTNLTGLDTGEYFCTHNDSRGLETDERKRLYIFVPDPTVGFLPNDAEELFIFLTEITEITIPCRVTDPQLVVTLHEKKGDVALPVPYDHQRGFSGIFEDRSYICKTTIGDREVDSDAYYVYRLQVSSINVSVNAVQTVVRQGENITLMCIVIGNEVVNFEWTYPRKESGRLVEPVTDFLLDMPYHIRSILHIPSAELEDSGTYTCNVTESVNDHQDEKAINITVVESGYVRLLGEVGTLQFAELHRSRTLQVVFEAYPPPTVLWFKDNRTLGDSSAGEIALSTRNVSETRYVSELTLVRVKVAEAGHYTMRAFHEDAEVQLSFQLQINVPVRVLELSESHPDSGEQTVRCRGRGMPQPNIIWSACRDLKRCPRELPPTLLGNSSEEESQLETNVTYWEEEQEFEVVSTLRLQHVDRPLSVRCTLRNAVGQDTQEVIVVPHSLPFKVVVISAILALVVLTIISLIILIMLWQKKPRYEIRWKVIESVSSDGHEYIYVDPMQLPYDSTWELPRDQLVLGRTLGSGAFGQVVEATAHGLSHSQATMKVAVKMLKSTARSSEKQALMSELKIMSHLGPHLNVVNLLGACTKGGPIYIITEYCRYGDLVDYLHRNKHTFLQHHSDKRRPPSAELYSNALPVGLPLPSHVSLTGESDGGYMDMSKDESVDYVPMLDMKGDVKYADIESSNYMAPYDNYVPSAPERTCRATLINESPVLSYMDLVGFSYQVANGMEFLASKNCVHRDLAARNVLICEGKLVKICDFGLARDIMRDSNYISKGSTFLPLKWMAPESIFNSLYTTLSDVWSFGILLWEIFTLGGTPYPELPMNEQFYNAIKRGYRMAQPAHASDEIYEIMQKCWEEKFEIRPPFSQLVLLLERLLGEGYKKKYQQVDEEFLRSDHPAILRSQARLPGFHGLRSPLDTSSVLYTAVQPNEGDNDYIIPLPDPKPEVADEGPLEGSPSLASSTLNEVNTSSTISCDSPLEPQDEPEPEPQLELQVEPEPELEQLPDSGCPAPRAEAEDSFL
T2 sequence (P48736 whole entry): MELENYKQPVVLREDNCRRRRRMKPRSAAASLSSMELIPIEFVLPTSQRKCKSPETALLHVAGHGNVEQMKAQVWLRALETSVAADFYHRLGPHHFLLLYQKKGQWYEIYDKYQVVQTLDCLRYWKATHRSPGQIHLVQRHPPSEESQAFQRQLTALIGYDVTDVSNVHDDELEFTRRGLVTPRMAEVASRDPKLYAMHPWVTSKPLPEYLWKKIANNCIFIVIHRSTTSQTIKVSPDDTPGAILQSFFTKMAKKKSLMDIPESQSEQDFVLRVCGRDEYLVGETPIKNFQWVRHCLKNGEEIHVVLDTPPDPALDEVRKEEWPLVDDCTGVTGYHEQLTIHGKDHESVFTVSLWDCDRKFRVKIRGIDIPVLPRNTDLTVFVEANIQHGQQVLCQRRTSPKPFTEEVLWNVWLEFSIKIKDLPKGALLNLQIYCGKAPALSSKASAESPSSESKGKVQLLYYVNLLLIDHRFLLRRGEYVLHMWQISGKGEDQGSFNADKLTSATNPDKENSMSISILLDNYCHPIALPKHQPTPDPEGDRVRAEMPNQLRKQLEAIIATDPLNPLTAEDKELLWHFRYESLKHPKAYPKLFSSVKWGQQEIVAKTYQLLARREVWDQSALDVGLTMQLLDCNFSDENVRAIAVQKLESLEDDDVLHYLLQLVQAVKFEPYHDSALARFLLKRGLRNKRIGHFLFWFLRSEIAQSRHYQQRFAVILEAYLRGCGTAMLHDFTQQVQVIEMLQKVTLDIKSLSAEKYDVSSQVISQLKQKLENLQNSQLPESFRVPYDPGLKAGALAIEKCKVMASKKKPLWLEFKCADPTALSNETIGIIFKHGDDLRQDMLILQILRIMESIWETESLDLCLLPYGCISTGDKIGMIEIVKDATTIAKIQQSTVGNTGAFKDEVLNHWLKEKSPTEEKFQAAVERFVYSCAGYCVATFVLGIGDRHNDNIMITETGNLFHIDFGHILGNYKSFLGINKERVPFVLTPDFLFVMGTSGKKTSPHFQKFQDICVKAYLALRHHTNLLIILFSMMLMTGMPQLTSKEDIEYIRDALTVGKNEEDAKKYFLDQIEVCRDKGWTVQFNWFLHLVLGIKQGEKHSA
T3 sequence (O00329 whole entry): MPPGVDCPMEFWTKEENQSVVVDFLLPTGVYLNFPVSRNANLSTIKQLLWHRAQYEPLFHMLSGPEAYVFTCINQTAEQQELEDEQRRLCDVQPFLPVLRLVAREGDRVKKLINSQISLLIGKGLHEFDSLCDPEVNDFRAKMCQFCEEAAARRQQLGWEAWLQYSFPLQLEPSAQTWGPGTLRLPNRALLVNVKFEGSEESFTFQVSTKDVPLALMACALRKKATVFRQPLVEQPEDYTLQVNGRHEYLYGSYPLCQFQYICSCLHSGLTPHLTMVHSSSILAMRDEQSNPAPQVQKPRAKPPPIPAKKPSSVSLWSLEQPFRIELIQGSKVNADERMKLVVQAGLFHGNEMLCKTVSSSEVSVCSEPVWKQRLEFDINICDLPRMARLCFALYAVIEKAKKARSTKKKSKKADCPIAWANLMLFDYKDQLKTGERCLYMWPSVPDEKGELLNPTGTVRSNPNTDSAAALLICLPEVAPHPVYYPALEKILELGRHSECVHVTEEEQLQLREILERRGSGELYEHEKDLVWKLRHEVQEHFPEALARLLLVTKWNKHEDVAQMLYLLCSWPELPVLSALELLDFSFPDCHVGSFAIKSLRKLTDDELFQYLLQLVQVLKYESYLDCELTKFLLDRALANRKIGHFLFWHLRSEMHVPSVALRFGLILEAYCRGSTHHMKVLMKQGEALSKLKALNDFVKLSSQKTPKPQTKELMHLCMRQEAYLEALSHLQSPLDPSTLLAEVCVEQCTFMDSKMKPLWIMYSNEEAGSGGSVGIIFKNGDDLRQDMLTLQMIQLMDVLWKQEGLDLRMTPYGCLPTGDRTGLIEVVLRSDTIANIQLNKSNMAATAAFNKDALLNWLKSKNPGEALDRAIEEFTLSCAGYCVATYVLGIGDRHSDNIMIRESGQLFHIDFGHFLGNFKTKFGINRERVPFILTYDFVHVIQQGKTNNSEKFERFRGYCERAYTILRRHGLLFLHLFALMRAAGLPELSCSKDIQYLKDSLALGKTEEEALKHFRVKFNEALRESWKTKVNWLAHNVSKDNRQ
T3 sequence (P27986 whole entry partner): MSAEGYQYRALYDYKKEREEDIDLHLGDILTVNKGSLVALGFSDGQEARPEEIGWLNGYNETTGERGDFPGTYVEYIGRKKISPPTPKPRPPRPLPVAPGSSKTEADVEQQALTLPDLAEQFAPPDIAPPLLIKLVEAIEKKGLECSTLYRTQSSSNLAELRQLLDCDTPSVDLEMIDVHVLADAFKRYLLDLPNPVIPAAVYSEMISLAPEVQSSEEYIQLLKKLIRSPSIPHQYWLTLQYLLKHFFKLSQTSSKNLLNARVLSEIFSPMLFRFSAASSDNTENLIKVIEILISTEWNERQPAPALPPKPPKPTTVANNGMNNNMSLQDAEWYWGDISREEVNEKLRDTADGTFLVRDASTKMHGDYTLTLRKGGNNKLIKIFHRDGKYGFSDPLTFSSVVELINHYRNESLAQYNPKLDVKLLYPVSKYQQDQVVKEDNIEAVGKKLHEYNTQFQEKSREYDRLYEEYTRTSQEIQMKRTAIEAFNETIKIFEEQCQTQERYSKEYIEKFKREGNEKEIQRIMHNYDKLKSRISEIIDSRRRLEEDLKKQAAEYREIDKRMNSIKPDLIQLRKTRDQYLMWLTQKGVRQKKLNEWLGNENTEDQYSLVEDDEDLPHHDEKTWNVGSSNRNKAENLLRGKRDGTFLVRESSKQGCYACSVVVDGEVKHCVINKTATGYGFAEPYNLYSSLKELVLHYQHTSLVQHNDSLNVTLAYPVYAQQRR
T4 sequence (P42336 whole entry): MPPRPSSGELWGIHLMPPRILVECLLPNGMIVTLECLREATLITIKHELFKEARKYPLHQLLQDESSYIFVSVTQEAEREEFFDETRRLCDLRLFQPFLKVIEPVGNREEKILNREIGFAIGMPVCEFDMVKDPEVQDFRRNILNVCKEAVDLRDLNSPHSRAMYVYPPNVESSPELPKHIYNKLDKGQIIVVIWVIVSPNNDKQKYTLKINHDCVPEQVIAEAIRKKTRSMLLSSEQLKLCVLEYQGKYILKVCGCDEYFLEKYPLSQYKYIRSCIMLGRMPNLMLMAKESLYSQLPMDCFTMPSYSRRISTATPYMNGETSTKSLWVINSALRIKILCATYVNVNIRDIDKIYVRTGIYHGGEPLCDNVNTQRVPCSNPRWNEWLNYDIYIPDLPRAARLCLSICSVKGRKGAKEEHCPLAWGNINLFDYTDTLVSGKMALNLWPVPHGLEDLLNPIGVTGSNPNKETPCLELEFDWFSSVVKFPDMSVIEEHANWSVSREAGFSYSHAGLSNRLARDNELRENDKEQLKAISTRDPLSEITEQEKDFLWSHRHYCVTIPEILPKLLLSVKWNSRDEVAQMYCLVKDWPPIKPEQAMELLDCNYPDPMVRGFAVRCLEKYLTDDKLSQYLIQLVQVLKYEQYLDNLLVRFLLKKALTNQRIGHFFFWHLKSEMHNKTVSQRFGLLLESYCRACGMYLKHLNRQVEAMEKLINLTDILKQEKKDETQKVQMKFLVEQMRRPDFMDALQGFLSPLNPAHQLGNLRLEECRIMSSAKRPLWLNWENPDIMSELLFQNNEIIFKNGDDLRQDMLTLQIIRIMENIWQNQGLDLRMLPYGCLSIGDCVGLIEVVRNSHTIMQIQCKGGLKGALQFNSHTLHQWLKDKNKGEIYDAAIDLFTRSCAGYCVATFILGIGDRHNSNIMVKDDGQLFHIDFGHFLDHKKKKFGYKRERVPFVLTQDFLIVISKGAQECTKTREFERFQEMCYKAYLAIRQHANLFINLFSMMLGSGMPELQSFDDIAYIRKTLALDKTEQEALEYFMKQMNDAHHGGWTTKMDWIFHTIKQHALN
T4 sequence (P27986 whole entry partner): as the sequence (P27986 whole entry partner) above

Compound `c1cnc2ccc(Nc3nc(NC4CC4)c4nc[nH]c4n3)cc2c1` [XC-302, reference compound] has an IC50 ([1]; Homo sapiens, PC-3, 72 h) of 15000 nM, an inhibition at 1 µM (PDGFR β enzyme) of 51.1% and an inhibition at 10 µM (PDGFR β enzyme) of 96.5%. It also gave an IC50 [2] of 17800 nM, an IC50 ([3]; Homo sapiens, BT-474, 72 h) of 5870 nM and an inhibition at 1 µM (PI3 K γ) of 18.3%. It also gave an inhibition at 10 µM (PI3 K γ) of 49.3%.

`CC(C)Oc1nc(Nc2ccc3nccc(-c4ccccc4)c3c2)nc2[nH]cnc12` [MED1007-108, N-(6-isopropoxy-9H-purine-2-yl)-4-(phenyl-1-yl) quinoline-6-amine-methanesulfonate] showed an inhibition at 0.4 µM (PI3Kδ; 0.4 μM (Table 8), read-out: Inhibition rate % to PI3K delta) of 40.5%, an inhibition at 2 µM (PI3Kδ; 2 μM (Table 8), read-out: Inhibition rate % to PI3K delta) of 78.6% and an inhibition at 10 µM (PI3Kδ; 10 μM (Table 8), read-out: Inhibition rate % to PI3K delta) of 89%. It also gave an IC50 ([1]; Homo sapiens, PC-3, 72 h) of 71.6 nM, an IC50 ([1]; 72 hours) of 113 nM and an IC50 ([4]; Homo sapiens, PC-3, PC-3 cells) of 3.83 nM. For the same compound, the IC50 ([4]; PC-3 cells) was 6.51 nM, the IC50 ([3]; 72 hours) was 35 nM and the IC50 ([3]; Homo sapiens, BT-474, 72 h) was 63 nM.

`CCC(CC)Oc1nc(Nc2ccc3nccc(-c4ccccc4)c3c2)nc2[nH]cnc12` [MED1007-105, N-(6-(pentyl-3-yloxyl)-9H-purine-2-yl)-4-phenyl quinoline-6-amine] showed an inhibition at 1 µM (PI3K α; 1 μM) of 60.4%, an inhibition at 10 µM (PI3K α; 10 μM) of 111% and an inhibition at 1 µM (PI3Kδ; [5]) of 74.2%. The inhibition at 10 µM (PI3Kδ; [6]) was 105%, the IC50 ([1]; Homo sapiens, PC-3, 72 h) was 1020 nM and the IC50 [2] was 41000 nM. For the same compound, the IC50 ([3]; Homo sapiens, BT-474, 72 h) was 420 nM.

`c1cnc2ccc(Nc3nc(OC4CCCC4)c4nc[nH]c4n3)cc2c1` [MED1007-35, N-(6-cyclopentyloxy-9H-purine-2-yl) quinoline-6-amine] was tested, and the inhibition at 1 µM (PI3Kδ; [5]) was 44.4%, the inhibition at 10 µM (PI3Kδ; [6]) was 87.4% and the IC50 ([4]; Homo sapiens, PC-3, PC-3 cells) was 74.5 nM. For the same compound, the inhibition at 1 µM (PDGFR β enzyme) was 54.8%, the inhibition at 10 µM (PDGFR β enzyme) was 99% and the inhibition at 1 µM (PI3 K γ) was 19.2%. The inhibition at 10 µM (PI3 K γ) was 53%.
